# Data from PMC8453848, “Effect of GLPG1205, a GPR84 Modulator, on CYP2C9, CYP2C19, and CYP1A2 Enzymes: In Vitro and Phase 1 Studies” (Clinical Pharmacology in Drug Development, 2021).
# Like-named read-outs stand apart in the source and are kept apart here.
# What was measured:
# [1] = Phase 1 drug-drug interaction study: safety and tolerability (adverse events)
# Excerpt: The safety assessment was based on adverse events (AEs), vital signs, 12‐lead electrocardiogram (ECG), physical examinations, and safety laboratory tests. AEs were monitored for the duration of the study. All safety assessments were undertaken at the screening visit, on days 13 and 14, and at the follow‐up visit. In addition, safety assessments were undertaken on day 1 (vital signs, 12‐lead ECG, and clinical laboratory tests) and day 7 (physical examination, vital signs, and clinical laboratory tests).
# The safety population comprised all randomized subjects who received at least 1 dose of study drug.
# [2] = Phase 1 drug-drug interaction study: plasma PK of GLPG1205; format: in vivo, human; settings: for AUC: 100 mg
# Procedure: The protein precipitated mixture was centrifuged at approximately 14 000 g for 15 minutes at room temperature. The clear supernatant was diluted with dilution solvent (water with 0.05% of trifluoroacetic acid) and then transferred into LC-MS plates. […] Chromatographic separation was performed on a Kinetex C18 column (50 x 3.0 mm, 2.6 µm from Phenomenex, Torrance, CA, USA) set at 40°C by using a Nexera high performance liquid chromatography (HPLC) system (Shimadzu, Kyoto, Japan) in isocratic elution mode.
# [3] = GLPG1205 100 mg once a day + CYP450 substrates, n = 14
# [4] = GLPG1205 100 mg once a day alone, n = 14
structure (smiles),measurement,setting,value
"O=c1nc(OC[C@@H]2COCCO2)cc2n1CCc1cc(C#CC3CC3)ccc1-2 [GLPG1205, 9‐cyclopropylethynyl‐2‐[(S)‐1‐(1,4)dioxan‐2‐ylmethoxy]‐6,7‐dihydropyrimido[6,1‐a]isoquinolin‐4‐one]",Any TEAE,[1]; [3],3 (21.4) n (%)
same,Gastrointestinal disorders,[1]; [3],0 n (%)
same,General disorders and general administration‐site conditions,[1]; [3],0 n (%)
same,Headache,[1]; [3],1 (7.1) n (%)
same,Influenza‐like illness,[1]; [3],0 n (%)
same,Musculoskeletal and connective tissue disorders,[1]; [3],1 (7.1) n (%)
same,Myalgia,[1]; [3],1 (7.1) n (%)
same,Nausea,[1]; [3],0 n (%)
same,Nervous system disorders,[1]; [3],1 (7.1) n (%)
same,Oropharyngeal pain,[1]; [3],1 (7.1) n (%)
same,Pain,[1]; [3],0 n (%)
same,"Respiratory, thoracic, and mediastinal disorders",[1]; [3],1 (7.1) n (%)
same,Any TEAE,[1]; [4],9 (64.3) n (%)
same,Back pain,[1]; [4],0 n (%)
same,Disturbance in attention,[1]; [4],2 (14.3) n (%)
same,Eye disorders,[1]; [4],1 (7.1) n (%)
same,Fatigue,[1]; [4],1 (7.1) n (%)
same,Flatulence,[1]; [4],1 (7.1) n (%)
same,Flushing,[1]; [4],1 (7.1) n (%)
same,Gastroenteritis,[1]; [4],1 (7.1) n (%)
same,Gastrointestinal disorders,[1]; [4],1 (7.1) n (%)
same,General disorders and general administration‐site conditions,[1]; [4],1 (7.1) n (%)
same,Headache,[1]; [4],5 (35.7) n (%)
same,Hyperhidrosis,[1]; [4],0 n (%)
same,Infections and infestations,[1]; [4],1 (7.1) n (%)
same,Lacrimation increased,[1]; [4],1 (7.1) n (%)
same,Musculoskeletal and connective tissue disorders,[1]; [4],1 (7.1) n (%)
same,Myalgia,[1]; [4],1 (7.1) n (%)
same,Nasopharyngitis,[1]; [4],0 n (%)
same,Nervous system disorders,[1]; [4],8 (57.1) n (%)
same,Oropharyngeal pain,[1]; [4],1 (7.1) n (%)
same,Paresthesia,[1]; [4],1 (7.1) n (%)
same,Presyncope,[1]; [4],1 (7.1) n (%)
same,Rash,[1]; [4],0 n (%)
same,"Respiratory, thoracic, and mediastinal disorders",[1]; [4],1 (7.1) n (%)
same,Skin and subcutaneous tissue disorders,[1]; [4],0 n (%)
same,Vascular disorders,[1]; [4],1 (7.1) n (%)
same,Vision blurred,[1]; [4],0 n (%)
same,"moderate presyncope, subjects",[1]; GLPG1205 alone,1 n
same,"moderate oropharyngeal pain, subjects",[1]; GLPG1205 plus CYP450 substrates,1 n
same,deaths or serious AEs,[1]; during the study,no deaths or serious AEs
same,"laboratory safety tests, ECG, vital signs, physical examination",[1]; during the study,No clinically significant trends or abnormalities
same,day by which steady state was reached,"[2]; GLPG1205 100 mg once a day, trough plasma concentrations",≤ 9 days
same,AUC,"[2]; male, human, plasma, oral, day 13, GLPG1205 100 mg once a day, n = 5, arithmetic mean (CV%), read-out: AUC0‐inf",373 µg·h/mL
same,AUC,"[2]; male, human, plasma, oral, day 13, GLPG1205 100 mg once a day, n = 14, arithmetic mean (CV%), read-out: AUC0‐t",395 µg·h/mL
same,Cmax,"[2]; male, human, plasma, oral, day 13, GLPG1205 100 mg once a day, n = 14, arithmetic mean (CV%)",5010 ng/mL
same,half-life,"[2]; male, human, plasma, oral, day 13, GLPG1205 100 mg once a day, n = 14, arithmetic mean (CV%), read-out: t1/2, λz (converted)",74.1 h
same,tmax,"[2]; male, human, plasma, oral, day 13, GLPG1205 100 mg once a day, n = 14, median (min‐max)",2 h
